In US8114886B2, “Pyridylmethylsulfone derivative” (Daiichi Sankyo Company, Limited, priority 2005, dated 2012):

Test system: β-amyloid protein (Aβ) secreted by E35 cells (H4 cells with APP751 gene)
Experiment: Screening system using E35 cells for inhibition of production/secretion of β-amyloid protein (sandwich ELISA of Aβ in culture medium)
Assay type: cell-based, human
Conditions: Homo sapiens, 24 hours with compound, Aβ in culture supernatant by ELISA, read-out: Inhibitory Activity for Production of A(EC50)
Protocol: The activity of the compound inhibiting β-amyloid protein production was measured on E35 cells prepared by introducing APP751 gene, a gene of a human wild type β-amyloid protein precursor protein, to human glioma cells (H4 cells), by quantifying the amount of β-amyloid protein (Aβ) secreted to the culture medium by means of a sandwich type Enzyme-Linked Immunosorbent Assay (ELISA) method.
That is, E35 cells inoculated on a 96-well plate were cultured in an incubator at 37° C. which was maintained at equilibrium with 5% carbon dioxide, using Dulbecco's Modified Eagle's Medium containing inactivated 10% fetal bovine serum as the culture medium. After 24 hours from the inoculation, a test compound dissolved in a DMSO solution was added. The DMSO solution of the test compound was prepared at a concentration of 2000 times of the final concentration, such that the DMSO concentration in the culture medium would be 0.05%. After culturing for another 24 hours, the culture supernatant was recovered, and this was added to a 96-well plate for ELISA onto which a monoclonal antibody against Aβ, 25-1, was solid-phased. The plate was incubated at 4° C. for 16 to 20 hours. The plate was washed with phosphate buffer solution (pH 7.4), and then a biotinylated monoclonal antibody against Aβ, MA32-40, was added thereto. The plate was left to stand at 4° C. for 2 hours. The plate was washed again with phosphate buffer solution, and then alkaline phosphatase-conjugated streptavidin was added to conjugate streptavidin to biotin. Subsequently, the plate was washed with phosphate buffer solution. To this, Blue Phos (Kirkegaard & Perry Laboratories, Inc.) was added. After incubating the plate for an appropriate time, the reaction was terminated with an acid, and the absorbance for each well was measured. The amount of Aβ contained in the culture supernatant was determined from a calibration curve which was produced separately, and the amount was compared with that of control cells to which the compound was not added. Thus, the concentration at which 50% of the Aβ production is inhibited (EC50 value) was calculated. In addition, the 25-1 antibody and MA32-40 antibody used in ELISA were mouse monoclonal antibodies derived from the hybridoma cell clone lines, which were each produced and selected according to a standard method using Aβ25-35 and Aβ1-8 as antigens, respectively, and which specifically recognize their respective antigens. […]
The scores indicate ++++ for the case where EC50 was 5 nM or less; +++ for the case where EC50 was 5 to 50 nM; ++ for the case where EC50 was 50 to 500 nM; and + for the case where EC50 was 500 nM to 5 μM.

Row | Structure (SMILES) | EC50 [nM]
1 | Cc1cc(C(N)=O)ncc1C(c1c(F)ccc(F)c1F)S(=O)(=O)c1ccccc1 (stereo not shown) [Example 105, 4-Methyl-5-[(phenylsulfonyl)(2,3,6-trifluorophenyl)methyl]pyridine-2-carboxamide] | ≤ 5
2 | Cc1cc(C(N)=O)ncc1C(c1cc(F)ccc1F)[S+]([O-])c1ccc(F)cc1 (stereo not shown) [Example 24, 5-[(2,5-Difluorophenyl) [(4-fluorophenyl)sulfinyl]methyl]-4-methylpyridine-2-carboxamide] | 5 to 50
3 | Cc1cc(C(N)=O)ncc1C(c1cc(F)ccc1F)S(=O)(=O)c1ccc(F)cc1 (stereo not shown) [Example 15, 5-[(2,5-Difluorophenyl)[(4-fluorophenyl)sulfonyl]methyl]-4-methylpyridine-2-carboxamide] | ≤ 5
4 | CC(=O)NCCNC(=O)c1cc(C)c(C(c2cc(F)ccc2F)S(=O)(=O)c2ccc(F)cc2)cn1 (stereo not shown) [Example 83, N-[2-(acetylamino)ethyl]-5-[(2,5-difluorophenyl)[(4-fluorophenyl)sulfonyl]methyl]-4-methylpyridine-2-carboxamide] | ≤ 5
5 | Cc1cc(C(N)=O)ncc1C(c1c(F)ccc(F)c1F)S(=O)(=O)c1ccc(F)cc1 (stereo not shown) [Example 39, 5-[[(4-Fluorophenyl)sulfonyl](2,3,6-trifluorophenyl)methyl]-4-methylpyridine-2-carboxamide] | ≤ 5
6 | Cc1cc(C(=O)N(C)C)ncc1C(c1cc(F)ccc1F)[S+]([O-])c1ccc(C(F)(F)F)nc1 (stereo not shown) [Example 28B, 5-[(2,5-difluorophenyl)[[6-(trifluoromethyl)pyridin-3-yl]sulfinyl]methyl]-N,N,4-trimethylpyridine-2-carboxamide] | 500 to 5000
7 | Cc1cc(C(=O)N(C)C)ncc1C(c1cc(F)ccc1F)S(=O)(=O)c1ccc(C(F)(F)F)nc1 (stereo not shown) [Example 28A, 5-[(2,5-Difluorophenyl) [[6-(trifluoromethyl)pyridin-3-yl]sulfonyl]methyl]-N,N,4-trimethylpyridine-2-carboxamide] | 500 to 5000
8 | Cc1cc(C(N)=O)ncc1C(c1cc(F)ccc1F)S(=O)(=O)c1ccc(C(F)(F)F)nc1 (stereo not shown) [Example 32, 5-[(2,5-Difluorophenyl)[[6-(trifluoromethyl)pyridin-3-yl]sulfonyl]methyl]-4-methylpyridine-2-carboxamide] | 5 to 50
9 | Cc1cc(C(=O)NCCO)ncc1C(c1cc(F)ccc1F)S(=O)(=O)c1ccc(C(F)(F)F)cn1 (stereo not shown) [Example 55, 5-[(2,5-Difluorophenyl)[[5-(trifluoromethyl)pyridin-2-yl]sulfonyl]methyl]-N-(2-hydroxyethyl)-4-methylpyridine-2-carboxamide] | 50 to 500
10 | Cc1cc(C(=O)N(C)C)ncc1C(c1c(F)ccc(F)c1F)[S+]([O-])c1ccc(F)cc1 (stereo not shown) [Example 36B, 5-[[(4-fluorophenyl)sulfinyl](2,3,6-trifluorophenyl)methyl]-N,N,4-trimethylpyridine-2-carboxamide] | 500 to 5000
11 | Cc1cc(S(=O)(=O)C(c2cnc(C(=O)NCCO)cc2C)c2cc(F)ccc2F)ccc1Cl (stereo not shown) [Example 67, 5-[[(4-Chloro-3-methylphenyl)sulfonyl](2,5-difluorophenyl)methyl]-N-(2-hydroxyethyl)-4-methylpyridine-2-carboxamide] | ≤ 5
12 | Cc1cc(C(=O)NCCO)ncc1C(c1cc(F)ccc1F)S(=O)(=O)c1ccc(C(F)(F)F)nc1 (stereo not shown) [Example 30, 5-[(2,5-Difluorophenyl) [[6-(trifluoromethyl)pyridin-3-yl]sulfonyl]methyl]-N-(2-hydroxyethyl)-4-methylpyridine-2-carboxamide] | ≤ 5
13 | Cc1cc(C(=O)N(C)C)ncc1C(c1c(F)ccc(F)c1F)S(=O)(=O)c1ccc(F)cc1 (stereo not shown) [Example 36A, 5-[[(4-Fluorophenyl)sulfonyl](2,3,6-trifluorophenyl)methyl]-N,N,4-trimethylpyridine-2-carboxamide] | 5 to 50
14 | Cc1cc(C(=O)NCCO)ncc1C(c1cc(F)ccc1F)S(=O)(=O)c1ccccc1 (stereo not shown) [Example 59, 5-[(2,5-Difluorophenyl)(phenylsulfonyl)methyl]-N-(2-hydroxyethyl)-4-methylpyridine-2-carboxamide] | 5 to 50
15 | Cc1cc(C(N)=O)ncc1C(c1c(F)ccc(F)c1F)[S+]([O-])c1ccc(F)cc1 (stereo not shown) [Example 38, 5-[[(4-Fluorophenyl)sulfinyl](2,3,6-trifluorophenyl)methyl]-4-methylpyridine-2-carboxamide] | 5 to 50
16 | CNC(=O)c1cc(C)c(C(c2cc(F)ccc2F)[S+]([O-])c2ccc(F)cc2)cn1 (stereo not shown) [Example 21, 5-[(2,5-Difluorophenyl)[(4-fluorophenyl)sulfinyl]methyl]-N,4-dimethylpyridine-2-carboxamide] | 5 to 50
17 | Cc1cc(S(=O)(=O)C(c2cnc(C(=O)NCCO)cc2C)c2cc(F)ccc2F)ccc1F (stereo not shown) [Example 71, 5-[(2,5-Difluorophenyl)[(4-fluoro-3-methylphenyl)sulfonyl]methyl]-N-(2-hydroxyethyl)-4-methylpyridine-2-carboxamide] | 5 to 50
18 | Cc1ccc(S(=O)(=O)C(c2cnc(C(=O)NCCO)cc2C)c2cc(F)ccc2F)cc1 (stereo not shown) [Example 63, 5-[(2,5-Difluorophenyl)[(4-methylphenyl)sulfonyl]methyl]-N-(2-hydroxyethyl)-4-methylpyridine-2-carboxamide] | ≤ 5

Test system: not given
Experiment: not given
Conditions: not given

Row | Structure (SMILES) | melting point [°C]
19 | Cc1cc(C(=O)N2CC(O)C2)ncc1C(c1cc(F)ccc1F)S(=O)(=O)c1ccc(F)cc1 (stereo not shown) [Example 88, 1-[[5-[(2,5-Difluorophenyl)[(4-fluorophenyl)sulfonyl]methyl]-4-methylpyridin-2-yl]carbonyl]azetidin-3-ol] | 219 to 221
20 | Cc1cc(C(=O)NCO)ncc1C(c1c(F)ccc(F)c1F)S(=O)(=O)c1ccc(C(F)(F)F)cc1 (stereo not shown) [Example 129, N-(hydroxymethyl)-4-methyl-5-[[[4-(trifluoromethyl)phenyl]sulfonyl](2,3,6-trifluorophenyl)methyl]pyridine-2-carboxamide] | 190 to 192
21 | Cc1cc(C(N)=O)ncc1C(c1c(F)ccc(F)c1F)S(=O)(=O)c1ccc2ccoc2c1 (stereo not shown) [Example 126, 5-[(1-Benzofuran-6-ylsulfonyl)(2,3,6-trifluorophenyl)methyl]-4-methylpyridine-2-carboxamide] | 237 to 240
22 | Cc1cc(C(N)=O)ncc1C(c1c(F)ccc(F)c1F)S(=O)(=O)c1ccc(F)c(F)c1 (stereo not shown) [Example 121, 5-[[(3,4-Difluorophenyl)sulfonyl](2,3,6-trifluorophenyl)methyl]-4-methylpyridine-2-carboxamide] | 200 to 201
23 | Cc1cc(C(=S)N(C)C)ncc1C(c1cc(F)ccc1F)S(=O)(=O)c1ccc(F)cc1 (stereo not shown) [Example 92, 5-[(2,5-Difluorophenyl)[(4-fluorophenyl)sulfonyl]methyl]-N,N,4-trimethylpyridine-2-carbothioamide] | 161 to 164
24 | Cc1cc(C(=O)N(C)CO)ncc1C(c1cc(F)ccc1F)S(=O)(=O)c1ccc(F)cc1 (stereo not shown) [Example 133, 5-[(2,5-Difluorophenyl)((4-fluorophenyl)sulfonyl)methyl]-N-(hydroxymethyl)-N,4-dimethylpyridine-2-carboxamide] | 184 to 186
25 | Cc1cc(C(=O)NCS)ncc1C(c1cc(F)ccc1F)S(=O)(=O)c1ccc(F)cc1 (stereo not shown) [Example 132, 5-[(2,5-Difluorophenyl)[(4-fluorophenyl)sulfonyl]methyl]-N-(mercaptomethyl)-4-methylpyridine-2-carboxamide] | 190 to 193
